Literature values as cited in patent publication US20210393545A1, “NATURAL PRODUCT COMPOSITION FOR STIMULATING HAIR GROWTH” (priority 2018, published 2021).

Columns and labels:
OR2AT4 = molecular target: T1, OR2AT4 (Homo sapiens, UniProt A6NND4); settings: human hair follicles ex vivo
T1 construct: from tissue; host or cells: human hair follicles (outer root sheath epithelium), ex vivo
T1 sequence (A6NND4 1-320): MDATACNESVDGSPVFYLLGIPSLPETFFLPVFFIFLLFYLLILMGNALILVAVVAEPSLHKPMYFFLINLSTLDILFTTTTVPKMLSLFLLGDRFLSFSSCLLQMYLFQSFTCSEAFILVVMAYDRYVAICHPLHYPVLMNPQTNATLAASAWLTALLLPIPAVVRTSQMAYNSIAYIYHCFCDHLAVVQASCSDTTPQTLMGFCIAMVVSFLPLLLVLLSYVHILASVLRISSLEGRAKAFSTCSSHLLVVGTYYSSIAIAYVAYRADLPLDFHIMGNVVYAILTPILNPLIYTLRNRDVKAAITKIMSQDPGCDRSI

[1] = system: testosterone 5 alpha reductase; settings: reported in the literature

Structure (SMILES) | apoptosis (OR2AT4) | human hair growth ex vivo (OR2AT4) | production of IGF-1 (OR2AT4) | 5 alpha reductase activity [1]
CC1=CCC(CCC(C)C(C)O)C1(C)C (stereo not shown) [Sandalore®, 3-methyl-5(2,2,3-Trimethylcyclepent-3-en-1-yl) pentan-2-ol] | decreasing apoptosis | prolongs human hair growth ex vivo | increasing production of the anagen-prolonging growth factor IGF-1 | –
CC(C)c1cc2c(c(O)c1O)[C@@]1(C(=O)O)CCCC(C)(C)[C@@H]1CC2 [carnosic acid] | – | – | – | active ingredient in suppressing 5 alpha reductase activity
